{"source": "patent US6670354B2", "about": "“Methods to enhance white blood cell count” (AnorMed, Inc., priority 1999, dated 2003)", "key": {"[1]": {"test_system": "white blood cell (WBC) count", "experimental": "Eleven human patients having initial white blood cell counts of 4,000-6,500 cells/mm^3 were used in the study. An intravenous dosing solution of AMD3100 (i.e., 1,1′-[1,4-phenylene-bis(methylene)]-bis-1,4,8,11-tetraazacyclotetradecane) were prepared from a stock solution which is a 1 mg/ml 1:10 dilution of a concentrate in 0.9% saline (normal saline) under sterile conditions. Aliquots from this stock solution were added to 50-ml bags of 0.9% saline for intravenous injection in amounts to achieve the desired dosage levels (10 μg/kg-80 μg/kg).\nThe subjects described in this example already contained an indwelling peripheral intravenous catheter. The prescribed amount of AMD3100 was administered over 15 minutes by intravenous fusion in a single dose. Blood samples were obtained prior to the dose, and at various times up to 24 hours after dose administration.\nEleven human subjects received intravenous administration of AMD-3100 at doses 10, 20, 40, and 80 μg/kg. Five subjects also received a single subcutaneous injection of AMD-3100 at doses of 40 and 80 μg/kg. Three patients were administered dosages of 10 μg/kg (open circles); 3 patients were administered dosages of 20 μg/kg (solid circles); 3 patients were administered 40 μg/kg (open triangles); and 2 patients were administered 80 μg/kg (closed triangles)."}, "[2]": {"test_system": "white blood cell (WBC) count", "experimental": "Eight patients received AMD-3100 at infusion dose rates of 2.5 μg/kg/hr (patients 1-4) and 5.0 μg/kg/hr (patients 5-8).", "remark": "listed apart in the source"}}, "data": [{"smiles": "c1cc(CN2CCCNCCNCCCNCC2)ccc1CN1CCCNCCNCCCNCC1", "note": "[AMD3100, 1,1′-[1,4-phenylene-bis(methylene)]-bis-1,4,8,11-tetraazacyclotetradecane]", "values": [{"measurement": "effect on white blood cell count after administration", "setting": "[1]; all 11 patients, 10, 20, 40, 80 μg/kg i.v. over 15 minutes, single dose, over the succeeding 5-10 hours, tapered off after about 24 hours, not returning to original level", "value": "marked increase in white blood cell count"}, {"measurement": "white blood cell count, peak value", "setting": "[1]; one patient who received 80 μg/kg i.v., from 6,000 cells/mm^3 before dose", "value": "19,000 cells/mm^3"}, {"measurement": "white blood cell count after increase", "setting": "[1]; patient showing the least response, 20 μg/kg i.v., from about 6,300 cells/mm^3", "value": "about 9,000 cells/mm^3"}, {"measurement": "time for WBC counts to return to baseline after discontinuation of the infusion", "setting": "[2]; continuous infusion 2.5 or 5.0 μg/kg/hr for up to 10 days, HIV-infected patients", "value": 7, "unit": "days"}, {"measurement": "ability to enhance WBC count in human patients", "setting": "[2]; following single dose or with continuous infusion", "value": "consistently able to enhance WBC count"}]}]}
